Values after ≈ are worked out from the molar mass of the structure shown. Where two headings read alike, the source gives them in different places.
Key:
[1] = tested on: S. aureus ATCC 25923; experiment: MIC, 2-fold microdilution, resazurin method; assay type: cell-based, Staphylococcus aureus; details: for spectrum of activity, in words: S. aureus vs Gram-negative species; for MIC: Staphylococcus aureus, ATCC25923
Protocol: (§1) Burkholderia cenocepacia strains, Escherichia coli ATCC 25922, Pseudomonas aeruginosa PAO1, and Staphylococcus aureus ATCC 25923 were grown in Luria-Bertani (LB) medium (Difco), if not differently specified, with shaking at 200 rpm, or on LB agar, at 37°C.
(§2) The microtiter plates were incubated at 37°C for 48 (for B. cenocepacia) or 24 h (for all the other strains) and growth was determined by the resazurin method (Martin et al., [2006]). A solution of resazurin sodium salt (Sigma Aldrich) was prepared at 0.01% in distilled water and filter-sterilized. Thirty microliter of resazurin solution were added to each well after 1 or 2 days of incubation at 37°C, and the microtiters were re-incubated at the same temperature for 4 h. The MIC was defined as the lowest concentration of the drug that prevented a change in color from blue to pink, which indicates bacterial growth.
(§3) Three independent biological replicates were used for each MIC determination.

[2] = tested on: E. coli ATCC 25922; experiment: MIC, 2-fold microdilution, resazurin method; assay type: cell-based; details: Escherichia coli, ATCC25922
Protocol: as §1, §2, §3

[3] = tested on: P. aeruginosa PAO1; experiment: MIC, 2-fold microdilution, resazurin method; assay type: cell-based; details: Pseudomonas aeruginosa, PAO1
Protocol: as §1, §2, §3

[4] = tested on: B. cenocepacia J2315; experiment: MIC, 2-fold microdilution, resazurin method; assay type: cell-based, Burkholderia cenocepacia; details: for MIC: Burkholderia cenocepacia; for activity compared with C109, in words: SAR statements, against both bacteria and the purified enzyme
Protocol: as §1, §2, §3

[5] = target: Burkholderia cenocepacia purified FtsZ protein (Burkholderia cenocepacia, UniProt B4E5Y7); experiment: biochemical; assay type: biochemical; details: for Inhibition of Bc FtsZ At 100 μM: 100 μM compound; for Inhibition of Bc FtsZ At 100 μM / Inhibits B. cenocepacia FtsZ GTPase at 100µM?: Yes/No; for Inhibits B. cenocepacia FtsZ GTPase at 100µM?: Supplementary Table 1
Protocol: All the recombinant FtsZ proteins were expressed at 20°C overnight in E. coli BL21(DE3) cells, upon induction with 0.5 mM IPTG, and purified using the same protocol assessed for the wild-type B. cenocepacia FtsZ (Hogan et al., [2018]).
GTPase enzyme activity was determined using a pyruvate kinase/L-lactic dehydrogenase (PK/LDH) spectrophotometric coupled assay (Ingerman and Nunnari, [2005]). The assays were performed at 30°C, in a reaction mixture containing […] Hepes pH 7.5, 5 mM MgCl2, 5 mM KCl, 10 U PK/LDH, 0.25 mM NADH, 0.25 mM PEP, and 5–10 μM FtsZ, and initiated by the addition of 0.5 mM GTP. Alternatively, GTPase activity was determined by measuring the release of phosphate using the malachite green assay (Baykov et al., [1988]).
(1) A[I]=A[0]×(1-[I]/[I]+IC50)
where A[I] is the enzyme activity at inhibitor concentration [I] and A[0] is the enzyme activity without inhibitor.

[6] = LB, 24 h, read-out: MIC S. aureus 25923
[7] = Supplementary Table 1, read-out: MIC (µg/ml) S. aureus 25923
[8] = LB, 24 h, read-out: MIC E. coli 25922
[9] = Supplementary Table 1, read-out: MIC (µg/ml) E. coli 25922
[10] = LB, 24 h, read-out: MIC P. aeruginosa PAO1
[11] = Supplementary Table 1, read-out: MIC (µg/ml) P. aeruginosa PAO1
[12] = J2315, LB, 48 h, read-out: MIC B. cenocepacia J2315
[13] = J2315, Supplementary Table 1, read-out: MIC (µg/ml) B. cenocepacia J2315

Chain of Burkholderia cenocepacia purified FtsZ protein (B4E5Y7 entry or part of it): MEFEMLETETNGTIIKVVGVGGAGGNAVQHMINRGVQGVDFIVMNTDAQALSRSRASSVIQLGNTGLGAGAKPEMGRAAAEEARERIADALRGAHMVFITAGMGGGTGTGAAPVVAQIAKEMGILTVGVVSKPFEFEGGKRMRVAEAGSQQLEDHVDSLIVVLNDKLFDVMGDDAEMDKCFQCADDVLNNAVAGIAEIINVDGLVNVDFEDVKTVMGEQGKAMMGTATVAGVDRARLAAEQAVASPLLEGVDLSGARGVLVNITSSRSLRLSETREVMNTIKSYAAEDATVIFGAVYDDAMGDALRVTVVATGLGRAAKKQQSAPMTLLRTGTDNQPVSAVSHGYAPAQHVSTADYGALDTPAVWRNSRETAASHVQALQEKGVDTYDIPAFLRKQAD

| SMILES | melting point [°C] | spectrum of activity, in words [1] | MIC [1, 6] [µg/mL] | MIC [1, 7] [µg/mL] | MIC [2, 8] [µg/mL] | MIC [2, 9] [µg/mL] | MIC [3, 10] [µg/mL] | MIC [3, 11] [µg/mL] | MIC [4, 12] [µg/mL] | MIC [4, 13] [µg/mL] | IC50 [5] [µM] | Inhibition of Bc FtsZ At 100 μM [5] | Inhibits B. cenocepacia FtsZ GTPase at 100µM? [5] | activity compared with C109, in words [4] | MIC ([4]; J2315, 48 h, read-out: MIC B. cenocepacia J2315) [µg/mL] | MIC ([4]; J2315, read-out: MIC (µg/ml) B. cenocepacia J2315) [µg/mL] |
| --- | --- | --- | --- | --- | --- | --- | --- | --- | --- | --- | --- | --- | --- | --- | --- | --- |
| CC(C)Oc1cc(SC#N)c2nsnc2c1[N+](=O)[O-] [compound 11126010] | 116 to 118 | showed activity only against S. aureus | 4 (≈ 13.5 µM) | 4 (≈ 13.5 µM) | > 512 | > 512 | > 128 | > 128 | > 128 | > 128 | 15 | Yes | Yes | – | – | – |
| O=C(O)CSc1ccc2nsnc2c1[N+](=O)[O-] [compound 11426177] | 215 to 217 | – | 256 (≈ 944 µM) | 256 (≈ 944 µM) | > 512 | > 512 | – | – | > 128 | > 128 | – | No | No | not active against B. cenocepacia | – | – |
| COc1cc(SC#N)c2nsnc2c1[N+](=O)[O-] [compound 11126009] | 143 to 145 | showed activity only against S. aureus | 8 (≈ 29.8 µM) | 8 (≈ 29.8 µM) | > 512 | > 512 | > 128 | > 128 | > 128 | > 128 | 4 | Yes | Yes | – | – | – |
| N#CSc1cc(SC#N)c2nsnc2c1[N+](=O)[O-] [compound 10626056] | 167 to 169 | showed activity only against S. aureus | 8 (≈ 27.1 µM) | 8 (≈ 27.1 µM) | > 512 | > 512 | > 128 | > 128 | > 64 | > 64 | 52 | Yes | Yes | – | – | – |
| CCOC(=O)COc1ccc2nsnc2c1[N+](=O)[O-] [compound 11726041] | 131 to 133 | – | > 256 | > 256 | > 512 | > 512 | – | – | > 256 | > 256 | – | No | No | completely loss of activity | – | – |
| CCOC(=O)C(C)Sc1ccc2nsnc2c1[N+](=O)[O-] (stereo not drawn) [compound 11826110] | 153 to 155 | – | 32 (≈ 102 µM) | 32 (≈ 102 µM) | 32 (≈ 102 µM) | 32 (≈ 102 µM) | > 256 | > 256 | 16 (≈ 51.1 µM) | 16 (≈ 51.1 µM) | > 100 | No | No | partially lost activity | – | – |
| COC(=O)CSc1c(C)cc2nsnc2c1[N+](=O)[O-] [compound 11926141] | 172 to 174 | – | 32 (≈ 107 µM) | 32 (≈ 107 µM) | > 256 | > 256 | > 256 | > 256 | > 256 | > 256 | 100 | Yes | Yes | – | – | – |
| CCOC(=O)CCSc1ccc2nsnc2c1[N+](=O)[O-] [compound 10226047] | 89 to 91 | – | > 512 | > 512 | > 512 | > 512 | > 128 | > 128 | > 512 | > 512 | – | No | No | completely loss of activity | – | – |
| CCOC(=O)CNc1ccc2nsnc2c1[N+](=O)[O-] [compound 11726042] | 169 to 171 | – | > 256 | > 256 | > 512 | > 512 | – | – | > 256 | > 256 | – | No | No | completely loss of activity | – | – |
| CCOC(=O)CSc1c(C)cc2nsnc2c1[N+](=O)[O-] [compound 11926142] | 181 to 183 | – | 32 (≈ 102 µM) | 32 (≈ 102 µM) | > 256 | > 256 | > 256 | > 256 | > 256 | > 256 | 100 | Yes | Yes | – | – | – |
| CN(C)C(=S)Sc1ccc2nsnc2c1[N+](=O)[O-] [compound 10126130] | 137 to 139 | – | 32 (≈ 107 µM) | 32 (≈ 107 µM) | 512 (≈ 1700 µM) | 512 (≈ 1700 µM) | > 128 | > 128 | > 128 | > 128 | 10 | Yes | Yes | – | – | – |
| CCOc1cc(SC#N)c2nsnc2c1[N+](=O)[O-] [compound 11026177] | 128 to 129 | showed activity only against S. aureus | 4 (≈ 14.2 µM) | 4 (≈ 14.2 µM) | > 512 | > 512 | 64 (≈ 227 µM) | 64 (≈ 227 µM) | > 512 | > 512 | 19 | Yes | Yes | – | – | – |
| O=[N+]([O-])c1c(Sc2ncc[nH]2)ccc2nsnc12 [compound 11726256] | 213 to 215 | showed activity only against S. aureus | 8 (≈ 28.6 µM) | 8 (≈ 28.6 µM) | 128 (≈ 458 µM) | 128 (≈ 458 µM) | > 256 | > 256 | 128 (≈ 458 µM) | 256 (≈ 917 µM) | > 100 | – | Yes | – | – | – |
| COC(=O)C(C)Sc1ccc2nsnc2c1[N+](=O)[O-] (stereo not drawn) [compound 11826363] | 161 to 163 | – | 64 (≈ 214 µM) | 64 (≈ 214 µM) | 16 (≈ 53.5 µM) | 16 (≈ 53.5 µM) | 256 (≈ 855 µM) | 256 (≈ 855 µM) | 16 (≈ 53.5 µM) | 16 (≈ 53.5 µM) | 30 | Yes | Yes | – | – | – |
| COC(=O)C[S+]([O-])c1ccc2nsnc2c1[N+](=O)[O-] (stereo not drawn) [compound 11726257] | 179 to 181 | – | 8 (≈ 26.6 µM) | 8 (≈ 26.6 µM) | 8 (≈ 26.6 µM) | 8 (≈ 26.6 µM) | 128 (≈ 425 µM) | 128 (≈ 425 µM) | 16 (≈ 53.1 µM) | 16 (≈ 53.1 µM) | 3 | Yes | Yes | activity on B. cenocepacia similar to C109 | – | – |
| COC(=O)CSc1cc(SCC(=O)OC)c2nsnc2c1[N+](=O)[O-] [compound 11726258] | 141 to 143 | – | 256 (≈ 657 µM) | 256 (≈ 657 µM) | > 256 | > 256 | > 256 | > 256 | 256 (≈ 657 µM) | 256 (≈ 657 µM) | 15 | Yes | Yes | – | – | – |
| N#CSc1cc(-c2ccc([N+](=O)[O-])cc2)c2nsnc2c1[N+](=O)[O-] [compound 11026176] | – | showed activity only against S. aureus | 4 (≈ 11.1 µM) | 4 (≈ 11.1 µM) | > 512 | > 512 | > 128 | > 128 | – | – | 17 | Yes | Yes | – | > 512 | > 512 |
